Assay results reported in patent US20210253718A1, “FRIZZLED5 PROTEIN-BINDING AGENTS” (Modmab Therapeutics Corporation, priority 2016, published 2021).

Columns and labels:
Assay type in all cases: cell-based, human
[1] = tested on: HPAF-II cells; experiment: Crystal violet staining proliferation (clonogenic growth) assay; details: 100 nM LGK974
Procedure: Crystal Violet Staining Proliferation Assay: HPAFII Cas9 cells were transduced with lentivirus generated with the indicated pLCKO plasmid as described above. 24 hours after infection cells were treated with puromycin. After 48 hours of selection, cells were PBS washed extensively, dissociated and counted. 2000 cells per well were re-seeded in 24-well format in media without puromycin. 24 hours post seeding, indicated wells were treated with DMSO control or 100 nM LGK974 (Cayman Chemical #14072) (note that these wells were from the LacZ gRNA population). Medium was renewed every 3-4 days and cells were fixed, 10 days post plating, using 100% ice-cold methanol. After fixation cells were stained with 0.5% crystal violet, 25% methanol solution for 20 minutes at room temperature, after which staining solution was removed and plates were washed several times in dH2O.
To validate the screen results HPAF-II cells were first infected with lentivirus coding for various gRNAs, transduced cells were selected for 48 hours and plated in clonogenic growth assays. […] In contrast, the growth of PANC-1 and BxPC-3 cell lines, which are wild-type for RNF43, was not inhibited by gRNAs targeting FZD5, FZD7 or CTNNB1 (FIG. 4C and FIG. 5).

[2] = tested on: PaTu-8988S cells; experiment: Cell viability assay (Alamar Blue) in PDAC cell lines, LGK974 comparator
[3] = tested on: ASPC-1 cells; experiment: as above
[4] = tested on: MUC5AC; experiment: RT-qPCR of differentiation induced gene MUC5AC; details: RNF43-mutant PDAC cells
Procedure: Reverse transcription and quantitative real-time PCR: After indicated treatments, cells were lysed in Tri-reagent (BioShop Canada #TSS120) and RNA extracted using the manufacturer's protocol. RNA concentration was quantified with Nanodrop1000 (Thermo Scientific) and 2 micrograms of RNA per sample was DNase I treated (ThermoFisher #AM2222). DNase treated RNA was used to make cDNA with High-Capacity cDNA Reverse Transcription Kit (ThermoFisher #4368813). Real-time PCR was performed using Power SYBR Green Master Mix on the 7900HT Fast Real-Time PCR system. Primer pairs are listed below. Analysis was done using the comparative cycle threshold (CT) method (Bookout et al., 2006) with all samples normalized to PPIB (cyclophilin B) expression. To validate the screen results HPAF-II cells were first infected with lentivirus coding for various gRNAs, transduced cells were selected for 48 hours and plated in clonogenic growth assays. […] In contrast, the growth of PANC-1 and BxPC-3 cell lines, which are wild-type for RNF43, was not inhibited by gRNAs targeting FZD5, FZD7 or CTNNB1 (FIG. 4C and FIG. 5).

Cc1cc(-c2ncc(CC(=O)Nc3ccc(-c4cnccn4)cn3)cc2C)ccn1 [LGK974]
growth in clonogenic growth assay [1]: robust growth inhibition | growth (cell viability) [2]: inhibited the growth | growth (cell viability) [3]: inhibited the growth | expression of the differentiation marker MUC5AC [4]: increased expression
